Experimental data published in patent US20260022142A1, “MACROCYCLIC IMMUNOMODULATORS” (Bristol-Myers Squibb Company, priority 2022, published 2026).
pIC50: −log10 of the molar value. Bridge positions count the residues as written; N and C are the ends. Square brackets hold non-standard residues; d marks the D form. Peptide text beside a SMILES is read from it. * marks the point of attachment. Bip = N[C@@H](Cc1ccc(-c2ccccc2)cc1)C(=O)O; Phe(3-Me) = Cc1cccc(C[C@H](N)C(=O)O)c1; Cha = N[C@@H](CC1CCCCC1)C(=O)O; Cit = NC(=O)NCCC[C@H](N)C(=O)O; Carboxymethyl = O=C(O)C*; Orn = NCCC[C@H](N)C(=O)O; Aun = NCCCCCCCCCCC(=O)O; Dab = NCC[C@H](N)C(=O)O; Dap = NC[C@H](N)C(=O)O

Target: T1, PD-1/PD-L1 interaction (PE-labeled human PD-L1-Ig binding to Jurkat cell line over-expressing human PD-1) (Homo sapiens, UniProt Q15116)
T1 construct: expressed in transfected cells; host or cells: Jurkat
Test: Jurkat-PD-1 Cell Binding High-Content Screening Assay (CBA)
Assay type: cell-based
Conditions: Jurkat cell line over-expressing human PD-1; PE-labeled PD-L1-Ig 20 nM final; read-out: Jurkat hPD1-PDL1 IC50
Method in brief: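 Binding of fluorescent PD-L1-Ig (20 nM final) to Jurkat-PD-1 cells was measured by automated imaging after 1 h, following a 2 h compound pre-treatment at 37° C.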

T1 sequence (Q15116 25-288): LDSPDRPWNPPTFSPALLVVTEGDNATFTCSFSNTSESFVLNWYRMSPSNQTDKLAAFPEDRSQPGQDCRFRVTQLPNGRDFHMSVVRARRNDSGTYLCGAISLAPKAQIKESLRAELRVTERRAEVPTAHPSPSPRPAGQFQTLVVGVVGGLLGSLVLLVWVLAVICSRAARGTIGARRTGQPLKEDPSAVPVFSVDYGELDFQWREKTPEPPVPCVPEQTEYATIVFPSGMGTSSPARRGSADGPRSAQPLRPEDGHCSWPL

Structure (SMILES) | pIC50
Cc1cccc(C[C@@H]2NC(=O)[C@H](CC(=O)O)NC(=O)[C@H](Cc3ccc(OCC(=O)O)cc3)NC(=O)[C@H](CN)NC(=O)CSC[C@@H](C(=O)N[C@@H](C)C(=O)N[C@@H](CCCN)C(=O)NCCCCCCCCCCC(=O)O)NC(=O)[C@H]([C@@H](C)O)NC(=O)[C@H](C(C)C)NC(=O)[C@H](CC3CCCCC3)NC(=O)[C@H](CCN)NC(=O)[C@@H](CC(C)C)NC(=O)[C@H](CCCN)NC(=O)[C@H](CCCNC(N)=O)NC(=O)[C@H](Cc3ccc(-c4ccccc4)cc3)NC(=O)[C@H](C(C)C)NC2=O)c1 [Compound 1072] ({CH2CO}-[Dap]Y(Carboxymethyl)D[Phe(3-Me)]V[Bip][Cit][Orn][dL][Dab][Cha]VTCA[Orn][Aun]-OH; thioether N-14) | 7.85
Cc1cccc(C[C@@H]2NC(=O)[C@H](CC(=O)O)NC(=O)[C@H](Cc3ccc(OCC(=O)O)cc3)NC(=O)[C@H](Cc3ccc(OCC(=O)O)cc3)NC(=O)CSC[C@@H](C(=O)NCC(=O)N[C@@H](CCCCN)C(=O)NCC(=O)NCCCCCCCCCCC(=O)O)NC(=O)[C@H](CO)NC(=O)[C@H](C(C)C)NC(=O)[C@H](CC3CCCCC3)NC(=O)[C@H](CCN)NC(=O)[C@@H](CC(C)C)NC(=O)[C@H](CCCN)NC(=O)[C@H](C(C)C)NC(=O)[C@H](Cc3ccc(-c4ccccc4)cc3)NC(=O)[C@H](CC(C)C)NC2=O)c1 [Compound 1073] ({CH2CO}-Y(Carboxymethyl)Y(Carboxymethyl)D[Phe(3-Me)]L[Bip]V[Orn][dL][Dab][Cha]VSCGKG[Aun]-OH; thioether N-14) | 7.82
CC(C)C[C@H]1NC(=O)[C@H](CCCN)NC(=O)[C@H](C(C)C)NC(=O)[C@H](Cc2ccc(-c3ccccc3)cc2)NC(=O)[C@H](C(C)C)NC(=O)[C@H](Cc2c[nH]c3ccccc23)NC(=O)[C@H](CC(=O)O)NC(=O)[C@H](Cc2ccc(OCC(=O)O)cc2)NC(=O)[C@H](CN)NC(=O)CSC[C@@H](C(=O)N[C@@H](CN)C(=O)NCCCCCCCCCCC(=O)O)NC(=O)[C@H]([C@@H](C)O)NC(=O)[C@H](C(C)C)NC(=O)[C@H](CC2CCCCC2)NC(=O)[C@H](Cc2c[nH]cn2)NC1=O [Compound 1074] ({CH2CO}-[Dap]Y(Carboxymethyl)DWV[Bip]V[Orn][dL]H[Cha]VTC[Dap][Aun]-OH; thioether N-14) | 7.16

Results, then the molecule that gave them:

pIC50 | Structure (SMILES)
7.46 | CC(C)C[C@H]1NC(=O)[C@H](CCCN)NC(=O)[C@H](C(C)C)NC(=O)[C@H](Cc2ccc(-c3ccccc3)cc2)NC(=O)[C@H](C(C)C)NC(=O)[C@H](Cc2c[nH]c3ccccc23)NC(=O)[C@H](CC(=O)O)NC(=O)[C@H](Cc2ccc(OCC(=O)O)cc2)NC(=O)[C@H](CN)NC(=O)CSC[C@@H](C(=O)N[C@@H](CCN)C(=O)NCCCCCCCCCCC(=O)O)NC(=O)[C@H]([C@@H](C)O)NC(=O)[C@H](C(C)C)NC(=O)[C@H](CC2CCCCC2)NC(=O)[C@H](Cc2c[nH]cn2)NC1=O [Compound 1075] ({CH2CO}-[Dap]Y(Carboxymethyl)DWV[Bip]V[Orn][dL]H[Cha]VTC[Dab][Aun]-OH; thioether N-14)
7.36 | CC(C)C[C@H]1NC(=O)[C@H](CCCN)NC(=O)[C@H](C(C)C)NC(=O)[C@H](Cc2ccc(-c3ccccc3)cc2)NC(=O)[C@H](C(C)C)NC(=O)[C@H](Cc2c[nH]c3ccccc23)NC(=O)[C@H](CC(=O)O)NC(=O)[C@H](Cc2ccc(OCC(=O)O)cc2)NC(=O)[C@H](CN)NC(=O)CSC[C@@H](C(=O)N[C@@H](CCCN)C(=O)NCCCCCCCCCCC(=O)O)NC(=O)[C@H]([C@@H](C)O)NC(=O)[C@H](C(C)C)NC(=O)[C@H](CC2CCCCC2)NC(=O)[C@H](Cc2c[nH]cn2)NC1=O [Compound 1076] ({CH2CO}-[Dap]Y(Carboxymethyl)DWV[Bip]V[Orn][dL]H[Cha]VTC[Orn][Aun]-OH; thioether N-14)
